Assay results reported in ChEMBL document CHEMBL4806957, “Cdk8/cdk19 selective inhibitors and their use in anti-metastatic and chemopreventive methods for cancer” (2019).
The source made the active and inactive calls. The calls are words filed in the database; no cut-off is given here.

Experiments:
[1] = Solubility of compound in water at 10 mM after 30 mins; assay type: physicochemical; conditions: buffer, 0.5 h, 10000 µM
[2] = Solubility of compound in water at < 50 mM after 30 mins; assay type: physicochemical; conditions: buffer, 0.5 h
[3] = test system: MDA-MB-231; assay: Additive antitumor activity against human MDA-MB-231 cells xenografted in SCID mouse assessed as reduction in tumor growth at 40 mg/kg, ip administered as 5 daily doses in presence of doxorubicin; assay type: functional, organism-based
[4] = Toxicity in BALB/c mouse assessed as decrease in kidney weight at 40 mg/kg, ip administered with 5 daily doses and 2 days off and another 5 daily dosing schedule for 12 days; assay type: organism-based; conditions: in vivo, 288 h, time 12 day
[5] = Toxicity in BALB/c mouse assessed as decrease in brain weight at 40 mg/kg, ip administered with 5 daily doses and 2 days off and another 5 daily dosing schedule for 12 days; assay type: organism-based; conditions: in vivo, 288 h, time 12 day
[6] = Toxicity in BALB/c mouse assessed as decrease in thymus weight at 40 mg/kg, ip administered with 5 daily doses and 2 days off and another 5 daily dosing schedule for 12 days; assay type: organism-based; conditions: in vivo, 288 h, time 12 day
[7] = test system: 4T1; assay: Growth inhibition of mouse 4T1 cells at 0.078 to 10 uM after 5 days by MTT assay; assay type: functional, cell-based; conditions: dose 0.078-10 µM, time 5.0 day
[8] = Toxicity in BALB/c mouse assessed as decrease in spleen weight at 40 mg/kg, ip administered with 5 daily doses and 2 days off and another 5 daily dosing schedule for 12 days; assay type: organism-based; design: scale not given: the % may be the effect or the level left; conditions: in vivo, 288 h, time 12 day
[9] = test system: MDA-MB-468; assay: Antitumor activity against human MDA-MB-468 cells xenografted in nude mouse assessed as non-invasive tumor growth at 40 mg/kg, ip administered daily for 30 days by H and E staining based histological analysis; assay type: functional, organism-based; conditions: time 30.0 day
[10] = molecular target: T1, Cyclin-dependent kinase 8 (Homo sapiens, UniProt P49336); assay: Inhibition of CDK8 in human HT1080 cells assessed as inhibition of IPTG-inducible p21 induced CMV-GFP expression by Hoechst 33342 staining-based fluorescence assay; assay type: cell-based; conditions: HT-1080
T1 sequence (P49336 whole entry): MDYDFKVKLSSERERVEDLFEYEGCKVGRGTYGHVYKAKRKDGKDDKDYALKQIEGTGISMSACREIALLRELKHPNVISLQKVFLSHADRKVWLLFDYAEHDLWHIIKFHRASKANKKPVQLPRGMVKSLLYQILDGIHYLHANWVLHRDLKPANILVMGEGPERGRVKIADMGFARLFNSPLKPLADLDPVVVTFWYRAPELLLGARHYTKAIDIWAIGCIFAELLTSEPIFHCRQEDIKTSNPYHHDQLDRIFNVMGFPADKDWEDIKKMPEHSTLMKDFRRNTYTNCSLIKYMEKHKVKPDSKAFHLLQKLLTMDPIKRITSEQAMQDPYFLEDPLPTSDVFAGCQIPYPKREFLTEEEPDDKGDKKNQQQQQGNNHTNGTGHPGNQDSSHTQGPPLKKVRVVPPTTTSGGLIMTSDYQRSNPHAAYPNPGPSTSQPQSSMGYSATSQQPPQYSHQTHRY

[11] = Toxicity in BALB/c mouse assessed as body weight gain at 40 mg/kg, ip administered with 5 daily doses and 2 days off and another 5 daily dosing schedule for 12 days; assay type: organism-based; conditions: in vivo, 288 h, time 12 day
[12] = test system: MDA-MB-468; assay: Antitumor activity against human MDA-MB-468 cells xenografted in mouse assessed as reduction in tumor growth pretreated with compound at 40 mg/kg, ip administered for 3 days followed by tumor injection by caliper method; assay type: functional, organism-based; conditions: time 3.0 day
[13] = test system: MDA-MB-468; assay: Antitumor activity against human MDA-MB-468 cells xenografted in nude mouse assessed as reduction in tumor growth at 40 mg/kg, ip administered daily for 30 days by caliper method; assay type: functional, organism-based; conditions: time 30.0 day
[14] = test system: MDA-MB-468; assay: Growth inhibition of human MDA-MB-468 cells after 5 days by MTT assay; assay type: functional, cell-based; conditions: dose 0.078-10 µM, time 5.0 day
[15] = Plasma concentration in mouse at 100 mg/kg administered via gavage; assay type: ADME, organism-based; conditions: in vivo, po
[16] = molecular target: T1, Cyclin-dependent kinase 8; assay: Inhibition of CDK8 (unknown origin) by Pro-Qinase assay
[17] = Toxicity in BALB/c mouse assessed as decrease in lymphocytes count at 40 mg/kg, ip administered with 5 daily doses and 2 days off and another 5 daily dosing schedule for 12 days; assay type: organism-based; design: scale not given: the % may be the effect or the level left; conditions: in vivo, 288 h, time 12 day
[18] = molecular target: T1, Cyclin-dependent kinase 8; assay: Inhibition of CDK8 (unknown origin)
[19] = test system: MDA-MB-157; assay: Growth inhibition of human MDA-MB-157 cells after 5 days by MTT assay; assay type: functional, cell-based; conditions: dose 0.078-10 µM, time 5.0 day
[20] = test system: MDA-MB-468; assay: Antitumor activity against human MDA-MB-468 cells xenografted in mouse assessed as reduction in tumor growth at 40 mg/kg, ip by caliper method; assay type: functional, organism-based
[21] = molecular target: T1, Cyclin-dependent kinase 8; assay: Inhibition of human CDK8 (M1 to T360 residues) expressed in bacterial expression system at 2000 nM by KINOMEscan assay relative to control
[22] = AUC in rat at 40 mg/kg, ip; assay type: ADME, organism-based; design: dose 40 mg/kg; conditions: in vivo
[23] = molecular target: Cyclin-dependent kinase 9 (Homo sapiens, UniProt P50750); assay: Inhibition of CDK9 (unknown origin)
Sequence of Cyclin-dependent kinase 9 (P50750 whole entry): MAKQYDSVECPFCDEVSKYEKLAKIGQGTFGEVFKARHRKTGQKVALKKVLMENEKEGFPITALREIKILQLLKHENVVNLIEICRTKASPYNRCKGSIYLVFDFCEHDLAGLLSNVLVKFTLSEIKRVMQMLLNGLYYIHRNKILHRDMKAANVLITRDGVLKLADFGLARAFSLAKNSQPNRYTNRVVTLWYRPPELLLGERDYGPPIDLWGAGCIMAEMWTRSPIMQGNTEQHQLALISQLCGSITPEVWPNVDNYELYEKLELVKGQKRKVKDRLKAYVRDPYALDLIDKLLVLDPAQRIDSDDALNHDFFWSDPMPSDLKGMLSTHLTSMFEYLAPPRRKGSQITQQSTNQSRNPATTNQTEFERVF

[24] = test system: MDA-MB-468; assay: Antitumor activity against human MDA-MB-468 cells xenografted in nude mouse assessed as slower appearance of palpable tumor pretreated with compound at 25 mg/kg, ip administered 5 daily dose followed by tumor injection and monitored every day; assay type: functional, organism-based
[25] = Toxicity in mouse xenografted with human MDA-MB-231 cells assessed as reduction in body weight at 40 mg/kg administered as 5 daily doses; assay type: organism-based; conditions: in vivo
[26] = test system: MDA-MB-231; assay: Antitumor activity against human MDA-MB-231 cells xenografted in SCID mouse assessed as reduction in tumor growth at 40 mg/kg, ip administered as 5 daily doses; assay type: functional, organism-based
[27] = Toxicity in BALB/c mouse assessed as decrease in lung weight at 40 mg/kg, ip administered with 5 daily doses and 2 days off and another 5 daily dosing schedule for 12 days; assay type: organism-based; conditions: in vivo, 288 h, time 12 day
[28] = test system: MDA-MB-468; assay: Antitumor activity against human MDA-MB-468 cells xenografted in nude mouse assessed as non-invasive tumor growth at 40 mg/kg, ip administered daily for 30 days in presence of doxorubicin by H and E staining based histological analysis; assay type: functional, organism-based; conditions: time 30.0 day
[29] = Toxicity in BALB/c mouse assessed as decrease in liver weight at 40 mg/kg, ip administered with 5 daily doses and 2 days off and another 5 daily dosing schedule for 12 days; assay type: organism-based; conditions: in vivo, 288 h, time 12 day
[30] = test system: A549; assay: Antitumor activity against human A549 cells xenografted in CB-17 SCID mouse assessed as reduction in tumor growth pretreated with compound at 40 mg/kg, ip administered 5 daily dose followed by tumor injection and monitored twice a week starting from 7 days after post tumor injection to 24 days by caliper method; assay type: functional, organism-based; conditions: time 24.0 day
[31] = molecular target: T2, Catenin beta-1 (Homo sapiens) (UniProt P35222); assay: Inhibition of beta-catenin activity in human HCT116 cells assessed as reduction in TOPFlash promoter mediated luciferase expression; assay type: cell-based; conditions: HCT-116, dose […]
T2 sequence (whole entry): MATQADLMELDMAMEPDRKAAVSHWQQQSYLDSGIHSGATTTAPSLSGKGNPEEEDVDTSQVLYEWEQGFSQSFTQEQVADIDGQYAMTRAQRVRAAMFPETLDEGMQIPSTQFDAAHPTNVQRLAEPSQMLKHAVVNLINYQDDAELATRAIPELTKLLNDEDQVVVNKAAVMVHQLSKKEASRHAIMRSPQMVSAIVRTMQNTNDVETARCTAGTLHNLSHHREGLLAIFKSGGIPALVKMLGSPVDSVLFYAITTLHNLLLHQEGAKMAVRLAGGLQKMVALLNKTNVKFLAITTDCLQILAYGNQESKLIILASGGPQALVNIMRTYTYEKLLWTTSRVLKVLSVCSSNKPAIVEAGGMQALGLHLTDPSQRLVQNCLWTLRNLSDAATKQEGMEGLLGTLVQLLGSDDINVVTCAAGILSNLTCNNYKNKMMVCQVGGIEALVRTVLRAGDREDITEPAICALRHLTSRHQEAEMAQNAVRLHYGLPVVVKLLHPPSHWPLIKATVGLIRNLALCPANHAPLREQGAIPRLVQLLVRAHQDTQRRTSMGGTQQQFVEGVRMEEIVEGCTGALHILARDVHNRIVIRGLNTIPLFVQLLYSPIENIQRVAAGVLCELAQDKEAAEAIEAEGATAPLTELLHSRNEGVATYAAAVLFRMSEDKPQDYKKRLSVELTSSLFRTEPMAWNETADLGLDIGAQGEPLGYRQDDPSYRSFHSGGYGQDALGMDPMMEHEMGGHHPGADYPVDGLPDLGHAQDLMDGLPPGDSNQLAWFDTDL

[32] = test system: MDA-MB-468; assay: Antitumor activity against human MDA-MB-468 cells xenografted in nude mouse assessed as reduction in tumor growth at 40 mg/kg, ip administered daily for 30 days in presence of doxorubicin by caliper method; assay type: functional, organism-based; conditions: time 30.0 day
[33] = Solubility of compound in water at 50 mM after 30 mins; assay type: physicochemical; conditions: buffer, 0.5 h, 50000 µM
[34] = molecular target: Cyclin-dependent kinase 19 (Homo sapiens) (UniProt Q9BWU1); assay: Inhibition of human […] (M1 to N360 residues) expressed in bacterial expression system at 2000 nM by KINOMEscan assay relative to control
Sequence of Cyclin-dependent kinase 19 (Homo sapiens) (Q9BWU1 whole entry, the tested form may be a part): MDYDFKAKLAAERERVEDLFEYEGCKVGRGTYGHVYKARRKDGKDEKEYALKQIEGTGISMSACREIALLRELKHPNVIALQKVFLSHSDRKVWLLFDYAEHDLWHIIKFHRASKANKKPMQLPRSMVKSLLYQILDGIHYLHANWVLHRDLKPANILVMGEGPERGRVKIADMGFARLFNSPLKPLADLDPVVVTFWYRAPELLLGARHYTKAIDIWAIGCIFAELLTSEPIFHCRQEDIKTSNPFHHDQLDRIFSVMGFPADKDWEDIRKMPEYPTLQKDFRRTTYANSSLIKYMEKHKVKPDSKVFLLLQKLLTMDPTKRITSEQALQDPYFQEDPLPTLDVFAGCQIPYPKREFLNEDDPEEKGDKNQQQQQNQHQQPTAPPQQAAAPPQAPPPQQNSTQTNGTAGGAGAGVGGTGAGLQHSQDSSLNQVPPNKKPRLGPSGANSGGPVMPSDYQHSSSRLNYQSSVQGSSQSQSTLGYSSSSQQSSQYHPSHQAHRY

[35] = test system: MDA-MB-468; assay: Antitumor activity against human MDA-MB-468 cells xenografted in nude mouse assessed as reduction in tumor growth at 4 mg/kg, ip administered daily for 30 days by caliper method; assay type: functional, organism-based; conditions: time 30.0 day
[36] = test system: MDA-MB-231; assay: Antitumor activity against human MDA-MB-231 cells xenografted in SCID mouse assessed as reduction in tumor growth at 1 mg/kg, ip administered as single dose; assay type: functional, organism-based
[37] = Toxicity in mouse xenografted with human MDA-MB-231 cells assessed as reduction in body weight at 1 mg/kg administered as single dose; assay type: organism-based; design: scale not given: the % may be the effect or the level left; conditions: in vivo
[38] = test system: MDA-MB-468; assay: Antitumor activity against human MDA-MB-468 cells xenografted in nude mouse assessed as invasive tumor growth at 4 mg/kg, ip administered daily for 30 days by H and E staining based histological analysis; assay type: functional, organism-based; conditions: time 30.0 day

**Q.** Which solubility [1] does the source give for CN(C)C(=O)c1ccc(CCNc2ncnc3ccc(C#N)cc23)cc1 here?
**A.** Soluble

**Q.** With CN(C)CCNC(=O)c1ccc(CCNc2ncnc3ccc(C#N)cc23)cc1 as the compound, how does the solubility [1] read?
**A.** Soluble

**Q.** For CN1CCN(C(=O)c2ccc(CCNc3ncnc4ccc(C#N)cc34)cc2)CC1, which solubility [1] is on record?
**A.** Soluble

**Q.** For CN1CCN(C(=O)c2cc(CNc3ncnc4ccc(C#N)cc34)ccc2Cl)CC1, which solubility [2] is on record?
**A.** Soluble

**Q.** For N#Cc1ccc2ncnc(NCCc3ccc(C(=O)N4CCC(N)C4)cc3)c2c1 (stereo not given), which solubility [1] is on record?
**A.** Soluble

**Q.** Which results are given for CN1CCN(C(=O)c2ccc3cc(CCNc4ncnc5ccc(C#N)cc45)ccc3c2)CC1 [SENEXIN B]?
**A.** Activity [3]: Active; Activity [4]: Non-Toxic; Activity [5]: Non-Toxic; Activity [6]: Non-Toxic; growth inhibition (GI) [7]: inactive; Activity [8]: 20%; Activity [9]: Active; inhibition [10]: Active; Activity [11]: Non-Toxic; Activity [12]: Active; Activity [13]: Active; growth inhibition (GI) [14]: Dose-Dependent Effect; concentration [15]: 50 µM; IC50 [16]: 24 nM; Activity [17]: 25%; Kd [18]: 140 nM; growth inhibition (GI) [19]: Dose-Dependent Effect; Activity [20]: Active; inhibition [21]: 97.8%; AUC [22]: 14100 ng·h/mL; Kd [23]: Not Active; Activity [24]: Active; Activity [25]: Non-Toxic; Activity [26]: Active; Activity [27]: Non-Toxic; Activity [28]: Active; Activity [29]: Non-Toxic; Activity [30]: Active; inhibition [31]: Dose-Dependent Effect; Activity [32]: Active; solubility [33]: Soluble; inhibition [34]: 98.6%

**Q.** With COCCNC(=O)c1ccc(CCNc2ncnc3ccc(C#N)cc23)cc1 as the compound, how does the solubility [1] read?
**A.** Soluble

**Q.** For N#Cc1ccc2ncnc(NCCc3ccc4cc(C(=O)N5CCOCC5)ccc4c3)c2c1, which solubility [2] is on record?
**A.** Soluble

**Q.** Which Activity [35] does the source give for COc1cccc2c1C(=O)c1c(O)c3c(c(O)c1C2=O)C[C@@](O)(C(=O)CO)C[C@@H]3O[C@H]1C[C@H](N)[C@H](O)[C@H](C)O1 [DOXORUBICIN] here?
**A.** Active

**Q.** What about the Activity [36] of the same compound?
**A.** Active

**Q.** What about the Activity [37] of the same compound?
**A.** 15%

**Q.** What about the Activity [38] of the same compound?
**A.** Active

**Q.** For N#Cc1ccc2ncnc(NCc3ccc(Cl)c(C(=O)N4CCOCC4)c3)c2c1, which solubility [33] is on record?
**A.** Soluble

**Q.** Which solubility [1] does the source give for N#Cc1ccc2ncnc(NCCc3ccc(C(=O)N4CCOCC4)cc3)c2c1 here?
**A.** Soluble
